Measurements taken from PubChem BioAssay AID1918944 (Molecular Pharmacology Branch, DTP, NCI, 2023).
Values joined by “and” are separate entries in the source; they are usually repeats but may differ in a detail not shown here. Equal entries are not always repeated.

Tested on: 786-0 complex spheroid viability
Test: Anticancer human tumor 786-0 cell line growth inhibition;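 further: spheroids exposed to agents for seven days before readout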
Details: for viability, T/C: stronger effect = lower value
Description: Multicellular complex tumor spheroid response to LSD1 Inhibitor Iadademstat in combination with a variety of drugs and investigational agents in selected tumor cell lines
The current study was undertaken to assess response to LSD1 inhibitors in combination with standard-of-care drugs and investigational agents in solid tumor complex spheroid models as well as in the K-562 leukemia. Complex spheroids include a stromal component modeled by human endothelial cells (HUVEC) and fibroblasts modeled by human mesenchymal stem cells (MSCs). The concentration ranges selected for each drug and investigational agent were based upon clinically achievable concentrations if the clinical Cmax of the agent was known.
Compounds. The drugs and investigational agents used in this study are listed on Table 1. All of the agents used, including staurosporine (NSC755774) and gemcitabine (NSC613327), were obtained from the Developmental Therapeutics Program, NCI. FDA-approved anticancer drugs are available from the NCI at http://dtp.nci.nih.gov/branches/dscb/oncology_drugset_explanation.html. Drugs and investigational agents were >95% pure by proton nuclear magnetic resonance (NMR) and liquid chromatography/mass spectrometry (LC/MS). Stock solutions were prepared at 400x in DMSO, stored at -70 degrees C, and diluted in fresh medium prior to their use. The final concentration of DMSO in cell culture wells never exceeded 0.25% (v/v). The FDA-approved anticancer drug set is available from the Developmental Therapeutics Program at https://dtp.cancer.gov/organization/dscb/obtaining/available_plates.htm. All drugs and investigational agents were tested over a range starting from a high concentration at or near the clinical Cmax and decreasing in half-log increments. If the clinical Cmax for an agent had not been determined, the highest concentration tested was 10 microM.
Cell Lines. The patient-derived cancer cell (PDC) lines: 292921-168-R-J2-PDC, K24384-001-R-PDC, and 521955-158-R2-J5-PDC pancreatic carcinomas, 556581-035-R-J1 ovarian carcinoma, 324938-238-R-J1-PDC, 855422-203-R-J1-PDC and 883617-216-R-J1-PDC urothelial bladder carcinomas, 743489-274-T-PDC renal cell carcinoma, 138582-R-J1 Merkel cell tumor, K60290-347-R-J1 and K57222-313-R-J1-PDC glioblastomas, 653999-131-R-J2-PDC, LG0703-F948-PDC, and 349418-098-R-PDC non-small cell lung carcinomas, 885512-296-R-J2-PDC, 171881-019-R-J1-PDC breast carcinomas and 186277-243-T-J2-PDC and 233499-124-R-J2-PDC colon carcinomas were obtained from the NCI Patient-Derived Models Repository (PDMR, https://pdmr.cancer.gov). The established cell lines NCI/ADR-RES (RRID:CVCL_14520 and OVCAR-5 (RRID:CVCL_1628) ovarian carcinomas, 786-O (RRID:CVCL_1051) and A498 (RRID:CVCL_A498) renal cell carcinoma, NCI-H211 (ATCC, cat. CRL-5824; RRID:CVCL_1529), NCI-H196 (ATCC, cat. CRL-5823, RRID:CVCL_1509), SW 1271 (ATCC, cat. CRL-2177, RRID:CVCL_1716) and NCI-H1876 (ATCC, cat. CRL-5902, RRID:CVCL_1503) small cell lung carcinomas, MDA-MB-231 (RRID:CVCL_0062) and MDA-MB-468 (RRID:CVCL_0419)breast carcinomas (10-12). Pooled donor human umbilical vein endothelial cells (HUVEC, Lonza, cat. CC-2519) and human mesenchymal stem cells (hMSC, Lonza, cat. PT-2501) were purchased from Lonza (Walkersville, MD).
Cell Culture. All cells were maintained in an incubator at 37 degrees C and 5% CO2 with 95% humidity. The PDC lines were cultured according to standard operating procedures established by the NCI PDMR (https://pdmr.cancer.gov). Briefly all PDCs were thawed and cultured in Matrigel-coated flasks prepared with a working solution of 1X Ham's F-12 nutrient mix, without supplementation (Invitrogen, Waltham, MA, cat. 11765054), 100 U/mL penicillin-streptomycin (Invitrogen, cat. 15140122), and 2.5% Matrigel (Corning Inc., Corning, NY, cat. 354248) for the first three passages. […]

COc1cc(C2c3cc4c(cc3C(OC3OC5COC(C)OC5C(O)C3O)C3COC(=O)C23)OCO4)cc(OC)c1O (configuration not stated)
viability, T/C (compound 0.00949 µM): 103% and 96%
viability, T/C (compound 0.03 µM): 96.4% and 94.6%
viability, T/C (compound 0.0949 µM): 63.6% and 72.1%
viability, T/C (compound 0.3 µM): 49.5% and 53.4%
viability, T/C (compound 0.949 µM): 23.1% and 38.4%
viability, T/C (compound 3 µM): 11.1% and 21.9%
IC50 (curve of compound): 0.241 µM and 0.396 µM

CC(C)c1c(-c2ccccc2)nc2c(C#N)c[nH]n2c1=O + NC1CCC(NC2CC2c2ccccc2)CC1
IC50 (curve of first compound, second compound 0.1 µM): > 10 µM
IC50 (curve of first compound, second compound 0.316 µM): > 10 µM
IC50 (curve of first compound, second compound 1 µM): > 10 µM
IC50 (curve of first compound, second compound 3.16 µM): > 10 µM
IC50 (curve of first compound, second compound 10 µM): > 10 µM
viability, T/C (second compound 0.1 µM, first compound 0.0316 µM): 110%
viability, T/C (second compound 0.1 µM, first compound 0.1 µM): 111%
viability, T/C (second compound 0.1 µM, first compound 0.316 µM): 119%
viability, T/C (second compound 0.1 µM, first compound 1 µM): 118%
viability, T/C (second compound 0.1 µM, first compound 3.16 µM): 116%
viability, T/C (second compound 0.1 µM, first compound 10 µM): 112%
viability, T/C (second compound 0.316 µM, first compound 0.0316 µM): 121%
viability, T/C (second compound 0.316 µM, first compound 0.1 µM): 118%
viability, T/C (second compound 0.316 µM, first compound 0.316 µM): 118%
viability, T/C (second compound 0.316 µM, first compound 1 µM): 116%
viability, T/C (second compound 0.316 µM, first compound 3.16 µM): 115%
viability, T/C (second compound 0.316 µM, first compound 10 µM): 116%
viability, T/C (second compound 1 µM, first compound 0.0316 µM): 114%
viability, T/C (second compound 1 µM, first compound 0.1 µM): 113%
viability, T/C (second compound 1 µM, first compound 0.316 µM): 113%
viability, T/C (second compound 1 µM, first compound 1 µM): 125%
viability, T/C (second compound 1 µM, first compound 3.16 µM): 112%
viability, T/C (second compound 1 µM, first compound 10 µM): 113%
viability, T/C (second compound 3.16 µM, first compound 0.0316 µM): 111%
viability, T/C (second compound 3.16 µM, first compound 0.1 µM): 107%
viability, T/C (second compound 3.16 µM, first compound 0.316 µM): 108%
viability, T/C (second compound 3.16 µM, first compound 1 µM): 100%
viability, T/C (second compound 3.16 µM, first compound 3.16 µM): 107%
viability, T/C (second compound 3.16 µM, first compound 10 µM): 103%
viability, T/C (second compound 10 µM, first compound 0.0316 µM): 92.7%
viability, T/C (second compound 10 µM, first compound 0.1 µM): 95.3%
viability, T/C (second compound 10 µM, first compound 0.316 µM): 95.2%
viability, T/C (second compound 10 µM, first compound 1 µM): 98.8%
viability, T/C (second compound 10 µM, first compound 3.16 µM): 88.1%
viability, T/C (second compound 10 µM, first compound 10 µM): 84.9%
